Converted amounts (≈) assume the structure as drawn. Read-outs that look alike come from different tables or passages of the source.
Legend:
[1] = Human Hepatocyte Stability (Test D); format: in vitro ADME; details: geometric mean if run multiple times; for hepatocyte CLint at 1 µM: human, cryopreserved pooled human hepatocytes (LiverPool 10-Donor)
How it was run: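 Pooled 10-donor cryopreserved human hepatocytes (≥80% viable) in L-15 medium at 0.25×10^6 cells per 0.25 mL well. Compound added from 100 μM acetonitrile solution; incubated at 37 °C with shaking, acetonitrile-quenched, LC-MS analysed. Clint (μL/min/10^6 cells) from ln % parent vs time slope; geometric mean of repeat runs.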

[2] = Human Liver Microsomal Stability (Test C); format: in vitro ADME; details: for microsomal CLint: human, liver microsomes
How it was run: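 Human liver microsome incubation per the Wernevik et al. integrated DMPK panel protocol. Intrinsic clearance reported as CLint in μl/min/mg protein, averaged arithmetically over repeat runs.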

[3] = Solubility (Test F); format: physicochemical; details: arithmetic mean if run multiple times
Protocol: The assay was conducted according to the Solubility Assay described in pages 164-167 of Wernevik, J. et al., “A Fully Integrated Assay Panel for Early Drug Metabolism and Pharmacokinetics Profiling”, Assay and Drug Development Technologies, 2020, 18(4), 157-179. Data are reported in Table 36 as solubility ([…]. Where the assay was run multiple times for the same compound, the arithmetic mean is reported.

[4] = Rat Hepatocyte Stability (Test E); format: in vitro ADME; details: geometric mean if run multiple times; for hepatocyte CLint: rat, hepatocytes
How it was run: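 Run per the published AstraZeneca-type rat hepatocyte stability protocol (Wernevik et al. panel). Values are mean intrinsic clearance, Clint in μl/min/10^6 cells; geometric mean used for repeated runs.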

[5] = target: T1, human RXFP1 (Homo sapiens, UniProt Q9HBX9); assay: RXFP1 Hu cAMP (Test A); format: cell-based; parameters: expressed in transfected cells; host or cells: Jump-In T-REx CHO-K1 cells (ThermoFisher), induced with 10 ng/ml doxycycline for 24 h
T1 sequence (Q9HBX9 1-757): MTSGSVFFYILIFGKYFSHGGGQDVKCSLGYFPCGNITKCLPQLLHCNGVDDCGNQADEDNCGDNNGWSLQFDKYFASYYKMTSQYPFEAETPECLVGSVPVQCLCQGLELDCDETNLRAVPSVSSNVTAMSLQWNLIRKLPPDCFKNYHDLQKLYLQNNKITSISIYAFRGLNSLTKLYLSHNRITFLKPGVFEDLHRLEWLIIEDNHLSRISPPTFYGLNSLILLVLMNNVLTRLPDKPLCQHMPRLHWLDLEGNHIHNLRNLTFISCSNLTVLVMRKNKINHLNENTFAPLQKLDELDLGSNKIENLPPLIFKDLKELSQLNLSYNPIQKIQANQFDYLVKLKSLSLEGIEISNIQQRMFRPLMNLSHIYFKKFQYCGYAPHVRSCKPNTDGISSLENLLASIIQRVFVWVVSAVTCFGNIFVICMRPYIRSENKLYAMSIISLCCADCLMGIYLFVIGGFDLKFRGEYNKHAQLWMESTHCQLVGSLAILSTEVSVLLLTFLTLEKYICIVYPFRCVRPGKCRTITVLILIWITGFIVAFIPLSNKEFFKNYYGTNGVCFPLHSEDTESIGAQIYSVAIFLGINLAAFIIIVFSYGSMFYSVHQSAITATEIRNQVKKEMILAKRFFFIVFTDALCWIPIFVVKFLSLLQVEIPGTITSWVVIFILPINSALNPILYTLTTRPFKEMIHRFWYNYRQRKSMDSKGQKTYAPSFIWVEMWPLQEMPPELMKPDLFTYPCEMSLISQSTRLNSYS
How it was run: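 Read-out is HTRF signal, inversely proportional to cAMP, converted to cAMP amount by standard curve. Stimulation occurred in inducible CHO-K1 cells expressing the human receptor with phosphodiesterases blocked by 0.5 mM IBMX.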

[6] = Human Plasma Protein Binding (Test B); format: in vitro ADME; details: fraction unbound (fu)
How it was run: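 Human plasma protein binding run per the published Wernevik et al. (2020) integrated DMPK panel protocol. Values are fraction unbound (fu, % free); repeat runs averaged arithmetically.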

[7] = RXFP1 Hu cAMP, read-out: Test A EC50

COc1cc(F)c(-c2cccc(C(=O)O)c2)cc1C(=O)N[C@H]1[C@@H](C(=O)Nc2ccc(F)c(S(=O)(=O)C(F)(F)F)c2)[C@@H]2C=C[C@H]1C2 (racemic) [Example 297] showed a hepatocyte CLint at 1 µM [1] of 9.4 µL/min/1e6 cells, a microsomal CLint [2] of 9.1 µL/min/mg and a solubility [3] of 8 µM (≈ 5.2 µg/mL). For the same molecule, the hepatocyte CLint [4] was 12 µL/min/1e6 cells, the “Test A Sinf” value ([5]; RXFP1 Hu cAMP) was 98% and the EC50 [5, 7] was 120 nM. The “Test B Human Plasma Protein Binding (% free)” value [6] was less than 0.33 % free.
COc1cc(F)c(-c2cccc(C(=O)O)c2)cc1C(=O)N[C@@H]1[C@H](C(=O)Nc2cccc(S(=O)(=O)C(F)(F)F)c2)[C@H]2C=C[C@@H]1C2 (single isomer, unassigned) [Example 555] gave a hepatocyte CLint at 1 µM [1] of 13 µL/min/1e6 cells, a microsomal CLint [2] of 21 µL/min/mg and a solubility [3] of 560 µM (≈ 354 µg/mL). The hepatocyte CLint [4] was 18 µL/min/1e6 cells, the EC50 [5, 7] was greater than 50000 nM and the “Test B Human Plasma Protein Binding (% free)” value [6] was less than 0.30 % free.
For COc1cc(F)c(Oc2ccc(C(=O)O)cc2)cc1C(=O)N[C@H]1[C@@H](C(=O)Nc2cccc(S(=O)(=O)C(F)(F)F)c2)[C@@H]2C=C[C@H]1C2 (racemic) [Example 484], the hepatocyte CLint at 1 µM [1] was 7.2 µL/min/1e6 cells, the microsomal CLint [2] was 9.4 µL/min/mg and the solubility [3] was 400 µM (≈ 259 µg/mL). The hepatocyte CLint [4] was 13 µL/min/1e6 cells, the “Test A Sinf” value ([5]; RXFP1 Hu cAMP) was 101% and the EC50 [5, 7] was 250 nM. The “Test B Human Plasma Protein Binding (% free)” value [6] was less than 0.31 % free.
Molecule COc1cc(F)c(O[C@H]2CC[C@@H](C(=O)O)CC2)cc1C(=O)NC1=C(C(=O)Nc2ccc(F)c(C(F)(F)F)c2)CCCC1 [Example 213, (1s,4s)-4-(2-Fluoro-5-((2-((4-fluoro-3-(trifluoromethyl)phenyl)carbamoyl)cyclohex-1-en-1-yl)carbamoyl)-4-methoxyphenoxy)cyclohexane-1-carboxylic acid] has a hepatocyte CLint at 1 µM [1] of 4 µL/min/1e6 cells, a microsomal CLint [2] of 16 µL/min/mg and a solubility [3] of 6.5 µM (≈ 3.88 µg/mL). For the same molecule, the hepatocyte CLint [4] was 8 µL/min/1e6 cells, the “Test A Sinf” value ([5]; RXFP1 Hu cAMP) was 98% and the EC50 [5, 7] was 180 nM. The “Test B Human Plasma Protein Binding (% free)” value [6] was 0.18 % free.
COc1cc(F)c(O[C@H]2CC[C@@](C)(C(=O)O)CC2)cc1C(=O)Nc1cnccc1C(=O)NCC1(C)CCC1 [Example 150, (1s,4s)-4-(2-Fluoro-4-methoxy-5-((4-(((1-methylcyclobutyl)methyl)carbamoyl)pyridin-3-yl)carbamoyl)phenoxy)-1-methylcyclohexane-1-carboxylic acid] showed a hepatocyte CLint at 1 µM [1] of 4.9 µL/min/1e6 cells, a microsomal CLint [2] of less than 3 µL/min/mg and a solubility [3] of 16 µM (≈ 8.44 µg/mL). For the same molecule, the hepatocyte CLint [4] was 39 µL/min/1e6 cells, the “Test A Sinf” value ([5]; RXFP1 Hu cAMP) was 95% and the EC50 [5, 7] was 460 nM. The “Test B Human Plasma Protein Binding (% free)” value [6] was 1.8 % free.
For COc1cc(F)c(O[C@H]2CC[C@@](C)(C(N)=O)CC2)cc1C(=O)N[C@@H]1[C@H]2CC[C@H](C2)[C@@H]1C(=O)NCC1(F)CCOCC1 [Example 147, (1R,2S,3R,4S)-3-(5-(((1s,4S)-4-Carbamoyl-4-methylcyclohexyl)oxy)-4-fluoro-2-methoxybenzamido)-N-((4-fluorotetrahydro-2H-pyran-4-yl)methyl)bicyclo-[2.2.1]heptane-2-carboxamide], the “Test D Human Hepatocyte Stability Clint” value ([1]; human hepatocytes) was 6.1 μL/min/10^6 cells, the “Test C Human Liver Microsomal Stability Clint” value ([2]; human liver microsomes) was 88 µL/min/mg and the solubility [3] was 1000 µM (≈ 578 µg/mL). The “Test E Rat Hepatocyte Stability Clint” value ([4]; rat hepatocytes) was 67 μL/min/10^6 cells, the “Test A Sinf” value ([5]; RXFP1 Hu cAMP) was 111% and the EC50 [5, 7] was greater than 4200 nM. For the same molecule, the “Test B Human Plasma Protein Binding (% free)” value [6] was 36 % free.
Molecule COc1c(F)cc(O[C@H]2CC[C@@](C)(C(=O)O)CC2)cc1C(=O)N[C@@H]1[C@H]2CC[C@H](C2)[C@@H]1C(=O)NCC1(C)CCC1 [Example 374] has a hepatocyte CLint at 1 µM [1] of 5.3 µL/min/1e6 cells, a microsomal CLint [2] of 44 µL/min/mg and a solubility [3] of 680 µM (≈ 370 µg/mL). The hepatocyte CLint [4] was 21 µL/min/1e6 cells, the EC50 ([5]; Test A EC50, RXFP1 Hu cAMP) was 44 nM and the “Test B Human Plasma Protein Binding (% free)” value [6] was 2.9 % free.
Molecule CC1(CNC(=O)[C@H]2[C@@H]3CC[C@@H](C3)[C@H]2NC(=O)c2cc(O[C@H]3CC[C@@](C)(C(=O)O)CC3)c(Cl)cc2F)CCC1 [Example 408] has a hepatocyte CLint at 1 µM [1] of 6.5 µL/min/1e6 cells, a microsomal CLint [2] of 32 µL/min/mg and a solubility [3] of 670 µM (≈ 368 µg/mL). For the same molecule, the hepatocyte CLint [4] was 20 µL/min/1e6 cells, the “Test A Sinf” value ([5]; RXFP1 Hu cAMP) was 106% and the EC50 [5, 7] was 24 nM. The “Test B Human Plasma Protein Binding (% free)” value [6] was 0.87 % free.
Molecule COc1cc(F)c(O[C@H]2CC[C@@](C)(C(=O)O)CC2)cc1C(=O)Nc1cc(Cl)ccc1C(=O)NCC1(C)CCC1 [Example 155, (1s,4s)-4-(5-((5-Chloro-2-(((1-methylcyclobutyl)methyl)carbamoyl)phenyl)carbamoyl)-2-fluoro-4-methoxyphenoxy)-1-methylcyclohexane-1-carboxylic acid] has a hepatocyte CLint at 1 µM [1] of 11 µL/min/1e6 cells, a microsomal CLint [2] of 5.4 µL/min/mg and a solubility [3] of 37 µM (≈ 20.8 µg/mL). The hepatocyte CLint [4] was 30 µL/min/1e6 cells, the “Test A Sinf” value ([5]; RXFP1 Hu cAMP) was 126% and the EC50 [5, 7] was 8.4 nM. For the same molecule, the “Test B Human Plasma Protein Binding (% free)” value [6] was 0.49 % free.
COc1cc(F)c(O[C@H]2CC[C@@H](C(=O)O)CC2)cc1C(=O)NC1=C(C(=O)Nc2ccc(F)c(C(F)(F)F)c2)CCC1 [Example 214, (1s,4s)-4-(2-Fluoro-5-((2-((4-fluoro-3-(trifluoromethyl)phenyl)carbamoyl)cyclopent-1-en-1-yl)carbamoyl)-4-methoxyphenoxy)cyclohexane-1-carboxylic acid] showed a hepatocyte CLint at 1 µM [1] of 2.3 µL/min/1e6 cells, a microsomal CLint [2] of less than 3 µL/min/mg and a solubility [3] of 400 µM (≈ 233 µg/mL). For the same molecule, the hepatocyte CLint [4] was 5.3 µL/min/1e6 cells, the “Test A Sinf” value ([5]; RXFP1 Hu cAMP) was 115% and the “Test B Human Plasma Protein Binding (% free)” value [6] was 0.090 % free.
COc1cc(F)c(O[C@H]2CC[C@@H](C(=O)O)CC2)cc1C(=O)N[C@@H]1[C@H]2CC[C@H](C2)[C@@H]1C(=O)Nc1ccccc1 [Example 201, (1S,4s)-4-(2-Fluoro-4-methoxy-5-(((1S,2R,3S,4R)-3-(phenylcarbamoyl)bicyclo[2.2.1]heptan-2-yl)carbamoyl)phenoxy)cyclohexane-1-carboxylic acid] gave a hepatocyte CLint at 1 µM [1] of 7.6 µL/min/1e6 cells, a microsomal CLint [2] of 23 µL/min/mg and a solubility [3] of 940 µM (≈ 493 µg/mL). For the same molecule, the hepatocyte CLint [4] was 190 µL/min/1e6 cells, the “Test A Sinf” value ([5]; RXFP1 Hu cAMP) was 98% and the EC50 [5, 7] was 7200 nM. For the same molecule, the “Test B Human Plasma Protein Binding (% free)” value [6] was 1.6 % free.
Molecule COc1cc(F)c(O[C@H]2CC[C@@](C)(C(=O)O)CC2)cc1C(=O)N[C@@H]1CCC[C@]1(F)C(=O)Nc1cccc(S(=O)(=O)C(F)(F)F)c1 [Example 355] has a hepatocyte CLint at 1 µM [1] of 8 µL/min/1e6 cells, a microsomal CLint [2] of 32 µL/min/mg and a solubility [3] of 430 µM (≈ 285 µg/mL). For the same molecule, the hepatocyte CLint [4] was 19 µL/min/1e6 cells, the “Test A Sinf” value ([5]; RXFP1 Hu cAMP) was 114% and the EC50 [5, 7] was 37 nM. The “Test B Human Plasma Protein Binding (% free)” value [6] was 2.1 % free.
Work on COc1cc(F)c(OCCCCCC(=O)O)cc1C(=O)N[C@@H]1[C@H]2CC[C@H](C2)[C@@H]1C(=O)Nc1cccc(S(=O)(=O)C(F)(F)F)c1 [Example 435, 6-(2-Fluoro-4-methoxy-5-(((1S,2R,3S,4R)-3-((3-((trifluoromethyl)sulfonyl)phenyl)carbamoyl)bicyclo[2.2.1]heptan-2-yl)carbamoyl)phenoxy)hexanoic acid] yielded a hepatocyte CLint at 1 µM [1] of 150 µL/min/1e6 cells, a microsomal CLint [2] of 63 µL/min/mg and a solubility [3] of 880 µM (≈ 567 µg/mL). For the same molecule, the hepatocyte CLint [4] was greater than 300 µL/min/1e6 cells, the “Test A Sinf” value ([5]; RXFP1 Hu cAMP) was 103% and the “Test B Human Plasma Protein Binding (% free)” value [6] was 1.4 % free.
Work on COc1cc(F)c(O[C@H]2CC[C@@H](C(=O)O)CC2)cc1C(=O)N[C@@H]1CC(F)(F)C[C@@H]1C(=O)Nc1ccc(F)c(C(F)(F)F)c1 (racemic) [Example 493] yielded a hepatocyte CLint at 1 µM [1] of 2.4 µL/min/1e6 cells, a microsomal CLint [2] of less than 3 µL/min/mg and a solubility [3] of 38 µM (≈ 23.6 µg/mL). For the same molecule, the hepatocyte CLint [4] was 4 µL/min/1e6 cells, the “Test A Sinf” value ([5]; RXFP1 Hu cAMP) was 108% and the EC50 [5, 7] was 420 nM. For the same molecule, the “Test B Human Plasma Protein Binding (% free)” value [6] was 1.3 % free.
